Data: patent US8829007B2 (priority 2009, dated 2014)
Where a name gives a salt, the structure may show the parent alone. Read-outs that look alike come from different tables or passages of the source.

Key:
[1] = system: A/PR/8/34 influenza virus; assay: microbe, parasite or virus in culture; assay type: cell-based
[2] = system: influenza A virus (A/PR/8/34); assay: microbe, parasite or virus in culture; assay type: cell-based
[3] = Influenza A virus, PR/8, MDCK, bDNA assay, A/PR/8/34 influenza virus replication in MDCK cells, class symbols, read-out: EC50 (mean all)
[4] = Influenza A virus, PR/8, MDCK, CPE assay, A/PR/8/34 infected MDCK cells, class symbols, read-out: IC50 (mean all)
[5] = bDNA assay, A/PR/8/34 influenza virus replication in MDCK cells, class symbols, read-out: EC50 (mean all)
[6] = CPE assay, A/PR/8/34 infected MDCK cells, class symbols, read-out: IC50 (mean all)
[7] = mean all, bDNA viral RNA in MDCK cells infected with A/PR/8/34, read-out: EC50
[8] = mean all, MDCK cells infected with A/PR/8/34, cell protection (CPE), read-out: IC50

| SMILES | EC50 [1, 7] [µM] | IC50 [2, 8] [µM] | also measured |
| --- | --- | --- | --- |
| O=C(N[C@@H]1CCC[C@H](Nc2nc(-c3c[nH]c4ncc(Cl)cc34)ncc2F)C1)C1CCCCO1 (stereo partly drawn) [Compound 651, N-[(1R,3S)-3-[[2-(5-chloro-1H-pyrrolo[2,3-b]pyridin-3-yl)-5-fluoro-pyrimidin-4-yl]amino]cyclohexyl]tetrahydropyran-2-carboxamide hydrochloride] | – | – | EC50 [1, 3]: < 5 µM; IC50 [2, 4]: < 5 µM |
| O=C(N[C@@H]1CCC[C@H](Nc2nc(-c3c[nH]c4ncc(Cl)cc34)ncc2F)C1)C1CCOC1 (stereo partly drawn) [Compound 652, N-[(1R,3S)-3-[[2-(5-chloro-1H-pyrrolo[2,3-b]pyridin-3-yl)-5-fluoro-pyrimidin-4-yl]amino]cyclohexyl]tetrahydrofuran-3-carboxamide hydrochloride] | – | – | EC50 [1, 3]: < 5 µM; IC50 [2, 4]: < 5 µM |
| N#Cc1cnc(-c2c[nH]c3ncc(Cl)cc23)nc1N[C@H]1CCCN(CC(N)=O)C1 [Compound 654] | – | – | EC50 [1, 3]: 5 to 10 µM; IC50 [2, 4]: 5 to 20 µM |
| Cc1ccc(S(=O)(=O)n2cc(-c3ncc(F)c(N[C@H]4CCCC(C)(O)C4)n3)c3cc(Cl)cnc32)cc1 (some centres unmarked) [Compound 655] | – | – | EC50 [1, 5]: < 5 µM; IC50 [2, 6]: < 5 µM |
| Cc1ccc(S(=O)(=O)n2cc(-c3ncc(F)c(N[C@H]4CCCC(C)(O)C4)n3)c3cc(Cl)cnc32)cc1 (some centres unmarked) [Compound 656] | – | – | EC50 [1, 5]: < 5 µM; IC50 [2, 6]: < 5 µM |
| OC[C@H]1CC(Nc2nc(-c3c[nH]c4ncc(Cl)cc34)ncc2F)[C@H](O)[C@@H]1O (some centres unmarked) [Compound 657] | – | – | EC50 [1, 3]: > 3.3 µM; IC50 [2, 4]: > 10 µM |
| O=C(C1CCCCO1)N1CCCC(Nc2nc(-c3c[nH]c4ncc(Cl)cc34)ncc2F)C1 (centres unmarked) [Compound 658] | – | – | EC50 [1, 5]: < 5 µM; IC50 [2, 6]: < 5 µM |
| O=C(C1CCCO1)N1CCCC(Nc2nc(-c3c[nH]c4ncc(Cl)cc34)ncc2F)C1 (centres unmarked) [Compound 660] | – | – | EC50 [1, 5]: < 5 µM; IC50 [2, 6]: < 5 µM |
| N#Cc1cnc2[nH]cc(-c3ncc(F)c(NC4CCCN(CC(N)=O)C4)n3)c2c1 (centres unmarked) [Compound 661] | – | – | EC50 [1, 5]: < 5 µM; IC50 [2, 6]: < 5 µM |
| Fc1cnc(-c2c[nH]c3ncc(Cl)cc23)nc1NC1CCCN(CC2CCCCO2)C1 (centres unmarked) [Compound 663] | – | – | EC50 [1, 5]: < 5 µM; IC50 [2, 6]: < 5 µM |
| N#CCN1CCC[C@H](Nc2nc(-c3c[nH]c4ncc(Cl)cc34)ncc2F)C1 [Compound 669] | – | – | EC50 [1, 3]: < 5 µM; IC50 [2, 4]: < 5 µM |
| CCOC(=O)C1=CC(Nc2nc(-c3c[nH]c4ncc(Cl)cc34)ncc2F)[C@@H](NC(C)=O)[C@H](OC(CC)CC)C1 (some centres unmarked) [Compound 670] | – | – | EC50 [1, 3]: > 3.3 µM; IC50 [2, 4]: > 10 µM |
| CCC(CC)O[C@@H]1CC(C(=O)O)=CC(Nc2nc(-c3c[nH]c4ncc(Cl)cc34)ncc2F)[C@H]1NC(C)=O (some centres unmarked) [Compound 671] | – | – | EC50 [1, 3]: > 3.3 µM; IC50 [2, 4]: > 10 µM |
| CC(C)(O)c1nc(-c2c[nH]c3ncc(Cl)cc23)nc(NC2CCCCC2C(=O)O)c1F (centres unmarked) [Compound 673] | < 5 | < 5 | – |
| Nc1nc(-c2c[nH]c3ncc(Cl)cc23)nc(NC2CCCCC2C(=O)O)c1F (centres unmarked) [Compound 674] | < 5 | < 5 | – |
| COC(=O)c1cnc2[nH]cc(-c3ncc(F)c(NC4CCCN(CC(N)=O)C4)n3)c2c1 (centres unmarked) [Compound 675] | > 3.3 | > 10 | – |
| Fc1cnc(-c2c[nH]c3ncc(Cl)cc23)nc1NC1CCCN(CC2CCCOC2)C1 (centres unmarked) [Compound 676] | < 5 | < 5 | – |
| CC1(C(=O)O)CCCCC1Nc1nc(-c2c[nH]c3ncc(Cl)cc23)ncc1F (centres unmarked) [Compound 677] | < 5 | < 5 | – |
| CC1(C(=O)O)CCCCC1Nc1nc(-c2c[nH]c3ncc(F)cc23)ncc1F (centres unmarked) [Compound 678] | < 5 | < 5 | – |
| CC(C)(O)C(=O)NC1CCCC(Nc2nc(-c3c[nH]c4ncc(Cl)cc34)ncc2F)C1 (centres unmarked) [Compound 681] | < 5 | < 5 | – |
| CC1(C(=O)NC2CCCC(Nc3nc(-c4c[nH]c5ncc(Cl)cc45)ncc3F)C2)CCCO1 (centres unmarked) [Compound 682] | < 5 | < 5 | – |
| CCC(=O)NC1CCCC(Nc2nc(-c3c[nH]c4ncc(Cl)cc34)ncc2F)C1 (centres unmarked) [Compound 683] | < 5 | < 5 | – |
| O=C(NC1CCCC(Nc2nc(-c3c[nH]c4ncc(Cl)cc34)ncc2F)C1)C1CC1 (centres unmarked) [Compound 684] | < 5 | < 5 | – |
| CC(C)C(=O)NC1CCCC(Nc2nc(-c3c[nH]c4ncc(Cl)cc34)ncc2F)C1 (centres unmarked) [Compound 685] | < 5 | < 5 | – |
| O=C(O)C1CCCCC1Nc1nc(-c2c[nH]c3ncc(Cl)cc23)nc(C(O)CO)c1F (centres unmarked) [Compound 687] | > 3.3 | < 5 | – |

| SMILES | EC50 [1, 7] [µM] | IC50 [2, 8] [µM] | also measured |
| --- | --- | --- | --- |
| COC(=O)NC1CCCC(Nc2nc(-c3c[nH]c4ncc(Cl)cc34)nc(C(C)(C)C)c2F)C1 (centres unmarked) [Compound 688] | < 5 | < 5 | – |
| COP(=O)(CN1CCC[C@H](Nc2nc(-c3c[nH]c4ncc(Cl)cc34)ncc2F)C1)OC [Compound 690] | – | – | EC50 ([1]; Influenza A virus, PR/8, MDCK): < 5 µM; IC50 ([2]; Influenza A virus, PR/8, MDCK, read-out: IC50): < 5 µM |
| CC(C)(C)c1nc(-c2c[nH]c3ncc(Cl)cc23)nc(NC2CCCCC2(C)C(=O)O)c1F (centres unmarked) [Compound 691] | < 5 | < 5 | – |
| O=C(O)C1CCCC(Nc2nc(-c3c[nH]c4ncc(Cl)cc34)ncc2F)C1 (centres unmarked) [Compound 696] | < 5 | < 5 | – |
| CC(C)OC(=O)NC1CCCC(Nc2nc(-c3c[nH]c4ncc(Cl)cc34)ncc2F)C1 (centres unmarked) [Compound 697] | < 5 | < 5 | – |
| CCCOC(=O)NC1CCCC(Nc2nc(-c3c[nH]c4ncc(Cl)cc34)ncc2F)C1 (centres unmarked) [Compound 698] | < 5 | < 5 | – |
| CC(C)COC(=O)NC1CCCC(Nc2nc(-c3c[nH]c4ncc(Cl)cc34)ncc2F)C1 (centres unmarked) [Compound 699] | < 5 | < 5 | – |
| CCOC(=O)NC1CCCC(Nc2nc(-c3c[nH]c4ncc(Cl)cc34)ncc2F)C1 (centres unmarked) [Compound 700] | < 5 | < 5 | – |
| CC#CCOC(=O)NC1CCCC(Nc2nc(-c3c[nH]c4ncc(Cl)cc34)ncc2F)C1 (centres unmarked) [Compound 701] | < 5 | < 5 | – |
| C#CCOC(=O)NC1CCCC(Nc2nc(-c3c[nH]c4ncc(Cl)cc34)ncc2F)C1 (centres unmarked) [Compound 702] | < 5 | < 5 | – |
| COCC(=O)NC1CCCC(Nc2nc(-c3c[nH]c4ncc(F)cc34)ncc2F)C1 (centres unmarked) [Compound 703] | < 5 | < 5 | – |
| O=C(NC1CCCC(Nc2nc(-c3c[nH]c4ncc(F)cc34)ncc2F)C1)C1CCCCO1 (centres unmarked) [Compound 704] | < 5 | < 5 | – |
| COC(=O)NC1CCCC(Nc2nc(-c3c[nH]c4ncc(F)cc34)ncc2F)C1 (centres unmarked) [Compound 705] | < 5 | < 5 | – |
| COCC(=O)NC1CCCC(Nc2nc(-c3c[nH]c4ncc(Cl)cc34)nc(C(C)(C)O)c2F)C1 (centres unmarked) [Compound 715] | < 5 | < 5 | – |
| COC(=O)NC1CCCC(Nc2nc(-c3c[nH]c4ncc(Cl)cc34)nc(C(C)(C)O)c2F)C1 (centres unmarked) [Compound 716] | < 5 | < 5 | – |
| OCC(O)C[C@@]1(O)CCCC(Nc2nc(-c3c[nH]c4ncc(Cl)cc34)ncc2F)C1 (some centres unmarked) [Compound 718] | – | – | EC50 ([1]; Influenza A virus, PR/8, MDCK, mean all, bDNA viral RNA in MDCK cells infected with A/PR/8/34, read-out: EC50): < 5 µM; IC50 ([2]; Influenza A virus, PR/8, MDCK, mean all, MDCK cells infected with A/PR/8/34, cell protection (CPE), read-out: IC50): < 5 µM |
| O=C(NCC1CC1)C1CCCC(Nc2nc(-c3c[nH]c4ncc(Cl)cc34)ncc2F)C1 (centres unmarked) [Compound 719] | < 5 | < 5 | – |
| COC1CN(C(=O)C2CCCC(Nc3nc(-c4c[nH]c5ncc(Cl)cc45)ncc3F)C2)C1 (centres unmarked) [Compound 720] | < 5 | < 5 | – |
| CCOC(=O)C(=O)N(C(=O)OC(C)(C)C)C1CC2CC(C(=O)OC)C1C2 (centres unmarked) [Compound 721] | < 5 | < 5 | – |
| CC(C)(C)C(=O)NC1CCCC(Nc2nc(-c3c[nH]c4ncc(Cl)cc34)ncc2F)C1 (centres unmarked) [Compound 723] | < 5 | < 5 | – |
| N#CCC(=O)NC1CCCC(Nc2nc(-c3c[nH]c4ncc(Cl)cc34)ncc2F)C1 (centres unmarked) [Compound 724] | < 5 | < 5 | – |
| CN(C)CC(=O)NC1CCCC(Nc2nc(-c3c[nH]c4ncc(Cl)cc34)ncc2F)C1 (centres unmarked) [Compound 725] | < 5 | < 5 | – |
| O=C(NC1CCCC(Nc2nc(-c3c[nH]c4ncc(Cl)cc34)ncc2F)C1)C1CCC1 (centres unmarked) [Compound 726] | < 5 | < 5 | – |
| CC(C)(C)CC(=O)NC1CCCC(Nc2nc(-c3c[nH]c4ncc(Cl)cc34)ncc2F)C1 (centres unmarked) [Compound 728] | < 5 | < 5 | – |
